# According to US10918643B2, “No-donors for the treatment of cerebrovascular vasospasms after brain hemorrhage” (Westfaelische Wilhelms-Universitaet Muenster, priority 2015, dated 2021):
# Key:
# [1] = test system: vasospasm and DCI after SAH; conditions: cited from earlier work
# [2] = test system: cerebral vasospasm of the middle cerebral artery (MCA) after aneurismal SAH; test: Transcranial Doppler (TCD) mean blood flow velocity in the MCAs, rescue treatment of one SAH patient; conditions: for MCA TCD R/L PRE, right / MCA TCD R/L PRE, left: continuously infused Molsidomine
# [3] = test system: delayed cerebral ischemia (DCI) after aneurismal SAH; test: Clinical neurological status and outcome (Hunt&Hess, WFNS, GCS, mNIH-SS, mRS) of the SAH patient; conditions: for recurrent clinical deteriorations (times observed): despite Nimodipine and Molsidomine infusions, right- and left-sided deficits or coma
# [4] = test system: cerebral arteries / brain perfusion after aneurismal SAH; test: Radiology (CT, CT-A, CT-P, DSA/arteriography, MRI) of the SAH patient; type: in vivo, human
# [5] = 3, 6, and 12 months follow up, continuous Molsidomine plus intraventricular SNP boluses
# [6] = Discharge at 38th POD, after Molsidomine + Nimodipine + 7 SNP boluses
# [7] = discharge on the 38th day after SAH
# [8] = discharge on the 38th day after SAH, Nimodipine + Molsidomine + 7 SNP boluses
smiles,measurement,setting,value
COc1ccccc1Oc1c(NS(=O)(=O)c2ccc(C)cn2)nc(-c2ccnc(-c3nnn[nH]3)c2)nc1OCCO [Clazosentan],outcome despite powerful suppression of (measurable) vasospasms,[1]; Macdonald et al. 2007,does not lead to an improved outcome
"CCOC(=O)[N-]c1c[n+](N2CCOCC2)no1 [Molsidomine, N-ethoxycarbonyl-3-morpholinosydnonimine]",TCD mean flow velocity in the left MCA (LMCA),"[2]; 9th day after SAH at deterioration under Molsidomine, before SNP, 140 cm/sec the day before",150 cm/s
same,TCD mean flow velocity in the RMCA,"[2]; 9th day after SAH at deterioration under Molsidomine, before SNP, unchanged",80 cm/s
same,"MCA TCD R/L PRE, right","[2]; POD 9th first episode (R hemiplegia, aphasia), before 1st SNP dose, mean flow",r: 160/ cm/sec
same,"MCA TCD R/L PRE, left","[2]; POD 9th first episode, before 1st SNP dose, mean flow",l: 150 cm/sec
same,"MCA TCD R/L PRE, right","[2]; POD 9th second episode (hemiplegia l, sopor), before 2nd SNP dose",r: 190 cm/sec
same,"MCA TCD R/L PRE, right","[2]; POD 10th 3rd episode (hemiplegia l, sopor), before 3rd SNP dose",r: 170 cm/sec
same,"MCA TCD R/L PRE, right","[2]; POD 17th 4th episode (hemiplegia, hemiparesis, sopor, intubation), before 4th SNP dose",R: 170 cm/sec
same,"MCA TCD R/L PRE, left","[2]; POD 17th 4th episode, before 4th SNP dose",L: 120 cm/sec
same,"MCA TCD R/L PRE, right","[2]; POD 18 6th episode (still intubated), before 6th SNP dose",R: 160 cm/sec
same,"MCA TCD R/L PRE, left","[2]; POD 18 6th episode, before 6th SNP dose",L: 110 cm/sec
same,"MCA TCD R/L PRE, right","[2]; POD 22 7th episode (sudden loss of vigilance), before 7th SNP dose",R: 180 cm/sec
same,"MCA TCD R/L PRE, left","[2]; POD 22 7th episode, before 7th SNP dose",L: 140 cm/sec
same,MCA TCD R/L (values),"[2]; POD 23-38, tapering of Molsidomine and Nimodipine, after 7 SNP boluses",Normal
same,mean blood flow velocities in both MCAs,"[2]; intravenous Molsidomine at the full dose (16 mg/hr), with Nimodipine",≤ 160 cm/s
same,clinical outcome and cerebral infarction,"[1]; SAH patients treated with intravenous molsidomine (Ehlert et al., 2015)",significant improvement in clinical outcome and less cerebral infarction
same,cognitive deficit,[3]; [5],did not have any cognitive deficit
same,mNIH-SS,[3]; [5],0
same,mRS,[3]; [5],0
same,RESULT: cognitive skills,[3]; [6],full cognitive
same,RESULT: mNIH-SS,[3]; [6],mNIH-SS: 0
same,RESULT: mRS,[3]; [6],mRS: 0
same,"clinical stabilization (Hunt&Hess grade I, WFNS I)","[3]; Molsidomine given after failure of standard therapy, before vasospasm and DCI progressed",clinical stabilization had been achieved for a week
same,recurrent clinical deteriorations (times observed),[3],7 times
same,Hunt&Hess grade,[3]; [7],0
same,cognitive deficit,[3]; [7],without cognitive deficit
same,mNIH-SS grade,[3]; [8],0
same,mRS grade,[3]; [8],0
same,"clinical status (HH I, WFNS I)","[3]; intravenous Molsidomine at the full dose, for several days",clinically stable
same,GCS,"[3]; intravenous Molsidomine at the full dose, several days",14-15
same,RADIOLOGY pre SNP (CT; CT-A; CT-P),"[4]; POD 17th 4th episode, before 4th SNP dose, during Molsidomine, both sides l > r, CTT prolonged, high grade vasospasm in MCAs and ACA",impaired perfusion
same,RADIOLOGY MRI: temporal ischemic lesion and gliosis at ventricular drainage site,"[4]; POD 23-38, tapering of Molsidomine and Nimodipine",MRI (5): tiny
COCCOC(=O)C1=C(C)NC(C)=C(C(=O)OC(C)C)C1c1cccc([N+](=O)[O-])c1 (stereo not drawn) [Nimodipine],recurrent clinical deteriorations (times observed),[3],7 times
